Marks after values point to notes of the source that are not given here.
Tested on: T-iPS-T cells
Test: Number of viable T-iPS-T cells under feeder-free culture (CD3/CD28 Dynabeads, Cell Count Reagent SF, absorbance 450 nm/650 nm)
Assay type: cell-based, human
Settings: T-iPS-T cells after 1st expansion, 6 days, DMSO control 0.225 ± 0.017
Description: T-iPS-T cells (1,500 cells/well) after 1st expansion were seeded and cultured in RPMI-1640 medium (SIGMA, R8758) supplemented with 15% FBS (CORNING, 35-076-CV, 35076104R), 1% PSG (SIGMA, G1146), PAA (50 μg/mL, Nacalai Tesque, 03420-52), ITS-G, IL-7 (5 ng/mL), IL-12 (50 ng/mL), IL-15 (5 ng/mL), IL-18 (50 ng/mL), IL-21 (20 ng/mL), and z-VAD-fmk (10 μM). The cells were stimulated by adding CD3/CD28 Dynabeads (Gibco, 11131D, the “Dynabeads” is a registered trademark) (4,500 beads/well) thereto, and 1,080 compounds [MedChemExpress, Apoptosis Compound Library (HY-L003), Cell Cycle/DNA Damage Compound Library (HY-L004), JAK/STAT Compound Library (HY-L008), MAPK Compound Library (HY-L010), NF-kappaB Compound Library (HY-L014), PI3K/Akt/mTOR Compound Library (HY-L015), and Wnt/Hedgehog/Notch Compound Library (HY-L020)] were added thereto (one type per well) at a final concentration of 1 μM, and then, the cells were cultured at 37° C. under 5% CO2.
DMSO (0.1%) that is a solvent for the compound was used as a control. After 6 days, the number of viable cells was measured using Cell Count Reagent SF (Nacalai Tesque, 07553) and a microplate reader (SoftMax Pro 5.X, Molecular Devices, 450 nm/650 nm).
A calibration curve for cell number was set as follows. When measuring the number of viable cells, 12-point serial dilution was performed for the same cells as those used in the screening, and the cells were seeded (0 to 1,536,000 cells/well) in RPMI-1640 medium supplemented with 15% FBS, 1% PSG, PAA, ITS-G, IL-7 (5 ng/mL) and IL-15 (5 ng/mL). The number of viable cells was measured together with the screening samples, and a calibration curve for WST-8 assay was formed.
In order to further evaluate the results obtained in Example 4, reproducibility was evaluated. As a method therefor, the same method as in Example 4 was used to carry out culturing and evaluation. As compounds, 20 compounds were selected and used among the compounds used in Example 4 including berbamine, and DMSO (0.1%) that is a solvent for the compound was used as a control. Note that in a statistical analysis, a Student's t-test was used (*: p<0.05).
The effect of a berbamine derivative on the proliferation of T cells was verified. As a method therefor, T-iPS-T cells after 1st expansion were cultured in the same manner as in Example 4, and berbamine (BBM) or each of 13 types of derivatives [BBMD1 to 13, Hebei Sundia MediTech Company Ltd.] was added thereto (one type per well) at a final concentration of 0.1 nM, 1 nM, 10 nM, 100 nM, or 1 μM, and then, the cells were cultured at 37° C. under 5% CO2. DMSO (0.1%) that is a solvent for the compound was used as a control.
After culturing for 6 days, the number of viable cells was measured using Cell Count Reagent SF (Nacalai Tesque, 07553) and a microplate reader (SoftMax Pro 5. X, Molecular Devices, 450 nm/650 nm), and the OD value was used as data. Note that in a statistical analysis, a Student's t-test was used (*: p<0.05). 1.

| Structure (SMILES) | number of viable cells (OD value) (0.1 nM) | number of viable cells (OD value) (1 nM) | number of viable cells (OD value) (10 nM) | number of viable cells (OD value) (100 nM) | number of viable cells (OD value) (1 μM) |
| --- | --- | --- | --- | --- | --- |
| COc1cc2c3cc1Oc1c(OC)c(OC)cc4c1C(Cc1ccc(OS(=O)(=O)c5ccccc5)c(c1)Oc1ccc(cc1)CC3N(C)CC2)N(C)CC4 (stereo not shown) [BBMD1] | 0.257 ± 0.024 | 0.268 ± 0.009 * | 0.289 ± 0.033 * | 0.415 ± 0.039 ** | 0.529 ± 0.101 ** |
| COc1cc2c3cc1Oc1c(OC)c(OC)cc4c1C(Cc1ccc(CCCCBr)c(c1)Oc1ccc(cc1)CC3N(C)CC2)N(C)CC4 (stereo not shown) [BBMD2] |  | 0.269 ± 0.059 | 0.295 ± 0.028 * | 0.437 ± 0.059 ** | 0.493 ± 0.036 *** |
| COc1cc2c3cc1Oc1c(OC)c(OC)cc4c1C(Cc1ccc(OCc5ccc([N+](=O)[O-])cc5)c(c1)Oc1ccc(cc1)CC3N(C)CC2)N(C)CC4 (stereo not shown) [BBMD3] | 0.245 ± 0.013 | 0.298 ± 0.021 * | 0.325 ± 0.077^ | 0.581 ± 0.025 **** | 0.195 ± 0.002 |
| COc1cc2c3cc1Oc1c(OC)c(OC)cc4c1C(Cc1ccc(OC(=O)C(C)(C)C)c(c1)Oc1ccc(cc1)CC3N(C)CC2)N(C)CC4 (stereo not shown) [BBMD4] | 0.234 ± 0.024 | 0.245 ± 0.037 | 0.286 ± 0.019 * | 0.470 ± 0.023 *** | 0.470 ± 0.053 ** |
| COc1cc2c3cc1Oc1c(OC)c(OC)cc4c1C(Cc1ccc(OC(=O)c5cc6ccccc6[nH]5)c(c1)Oc1ccc(cc1)CC3N(C)CC2)N(C)CC4 (stereo not shown) [BBMD5] | 0.246 ± 0.001 | 0.245 ± 0.016 | 0.285 ± 0.032 * | 0.477 ± 0.064 ** | 0.186 ± 0.001 |
| COc1cc2c3cc1Oc1c(OC)c(OC)cc4c1C(Cc1ccc(OC(=O)c5ccc(Br)cc5)c(c1)Oc1ccc(cc1)CC3N(C)CC2)N(C)CC4 (stereo not shown) [BBMD6] | 0.248 ± 0.019 | 0.248 ± 0.016 | 0.290 ± 0.023 * | 0.472 ± 0.077 ** | 0.208 ± 0.004 |
| COc1cc2c3cc1Oc1c(OC)c(OC)cc4c1C(Cc1ccc(CCCCN5CCCC5)c(c1)Oc1ccc(cc1)CC3N(C)CC2)N(C)CC4 (stereo not shown) [BBMD7] | 0.230 ± 0.018 | 0.266 ± 0.013 * | 0.258 ± 0.024^ | 0.346 ± 0.041 ** | 0.550 ± 0.026 **** |
| COc1cc2c3cc1Oc1c(OC)c(OC)cc4c1C(Cc1ccc(OC(=O)CCNC(=O)OC(C)(C)C)c(c1)Oc1ccc(cc1)CC3N(C)CC2)N(C)CC4 (stereo not shown) [BBMD8] | 0.268 ± 0.022 * | 0.227 ± 0.028 | 0.261 ± 0.029^ | 0.326 ± 0.051 * | 0.462 ± 0.027 *** |
| COc1cc2c3cc1Oc1c(OC)c(OC)cc4c1C(Cc1ccc(OCCCN)c(c1)Oc1ccc(cc1)CC3N(C)CC2)N(C)CC4 (stereo not shown) [BBMD9] | 0.264 ± 0.030 | 0.255 ± 0.004 * | 0.221 ± 0.017^ | 0.268 ± 0.020 * | 0.328 ± 0.016** |
| COc1ccc(C(=O)NCCCOc2ccc3cc2Oc2ccc(cc2)CC2c4cc(c(OC)cc4CCN2C)Oc2c(OC)c(OC)cc4c2C(C3)N(C)CC4)cc1 (stereo not shown) [BBMD10] | 0.255 ± 0.013 | 0.274 ± 0.007 ** | 0.295 ± 0.023 * | 0.494 ± 0.038 *** | 0.301 ± 0.008 ** |
| COc1cc2c3cc1Oc1c(OC)c(OC)cc4c1C(Cc1ccc(OCCCNC(=O)c5ccc(-c6ccc(C=O)cc6)cc5)c(c1)Oc1ccc(cc1)CC3N(C)CC2)N(C)CC4 (stereo not shown) [BBMD11] | 0.270 ± 0.099 | 0.242 ± 0.046 | 0.300 ± 0.081^ | 0.425 ± 0.079 * | 0.239 ± 0.076 |
| COc1cc2c3cc1Oc1c(OC)c(OC)cc4c1C(Cc1ccc(OCCCNC(=O)c5cscn5)c(c1)Oc1ccc(cc1)CC3N(C)CC2)N(C)CC4 (stereo not shown) [BBMD12] | 0.185 ± 0.072 | 0.234 ± 0.027 | 0.235 ± 0.010^ | 0.257 ± 0.008 * | 0.561 ± 0.035 *** |
| COc1cc2c3cc1Oc1c(OC)c(OC)cc4c1C(Cc1ccc(OC(=O)c5ccccc5)c(c1)Oc1ccc(cc1)CC3N(C)CC2)N(C)CC4 (stereo not shown) [BBMD13] | 0.253 ± 0.022 | 0.292 ± 0.001 ** | 0.260 ± 0.011 * | 0.412 ± 0.085 * | 0.288 ± 0.041 |

Source: patent US12168781B2, “Production method for T cells or NK cells, medium for culturing T cells or NK cells, method for culturing T cells or NK cells, method for maintaining undifferentiated state of undifferentiated T cells, and growth-accelerating agent for T cells or NK cells” (KIRIN HOLDINGS KABUSHIKI KAISHA, priority 2018, dated 2024)
